# Assay results reported in patent publication US20200288710A1, “SUBSTITUTED SULPHONAMIDES FOR CONTROLLING ANIMAL PESTS” (BAYER CROPSCIENCE AKTIENGESELLSCHAFT, priority 2016, published 2020).
# How the values were obtained:
# Myzus persicae [1] = assay: Myzus persicae spray test (Chinese cabbage leaf discs); format: in vivo; details: foliar, 120 h, 500 g/ha, after 5-6 days, read-out: efficacy
# Experimental: Myzus persicae—Spray Test Solvent: 78 parts by weight of acetone • • 1.5 parts by weight of dimethylformamide Emulsifier: alkylaryl polyglycol ether To produce a suitable preparation of active compound, 1 part by weight of active compound is dissolved using the specified parts by weight of solvent and made up with water containing an emulsifier concentration of 1000 ppm until the desired concentration is attained. To produce further test concentrations, the formulation is diluted with emulsifier-containing water. Discs of Chinese cabbage leaves (Brassica pekinensis) infested by all stages of the green peach aphid (Myzus persicae) are sprayed with an active compound preparation of the desired concentration. After 5-6 days, the efficacy in % is determined. 100% means that all the aphids have been killed; 0% means that no aphids have been killed.
# Myzus persicae [2] = assay: Myzus persicae oral test; format: in vivo; details: 120 h, 20 ppm, oral uptake, after 5 days, read-out: efficacy
# Experimental: Myzus persicae—Oral Test Solvent: 100 parts by weight of acetone To produce a suitable preparation of active compound, 1 part by weight of active compound is dissolved using the specified parts by weight of solvent and made up with water until the desired concentration is attained. 50 μl of the active compound preparation are transferred into microtitre plates and made up to a final volume of 200 μl with 150 μl of IPL41 insect medium (33%+15% sugar). Subsequently, the plates are sealed with parafilm, which a mixed population of green peach aphids (Myzus persicae) within a second microtitre plate is able to puncture and imbibe the solution through it. After 5 days, the efficacy in % is determined. 100% means that all the aphids have been killed; 0% means that no aphids have been killed.
Compound,pest or weed control at 500 g/ha (Myzus persicae [1]),pest or weed control at 20 ppm (Myzus persicae [2])
CCc1[nH]c(-c2cc(F)cc(F)c2)nc1C(=O)NS(=O)(=O)C(C)C [Example 127],90%,–
Cc1[nH]c(-c2cccc(C(C)C)c2)nc1C(=O)NS(=O)(=O)C(C)C [Example 620],–,90%
CN(C)S(=O)(=O)NC(=O)c1cn(C)c(-c2ccccc2Cl)n1 [Example 204],100%,–
Cn1cc(C(=O)NS(=O)(=O)c2c(F)cccc2F)nc1-c1c(Cl)cccc1Cl [Example 24],90%,–
COc1ccc(Cl)c(S(=O)(=O)NC(=O)c2nc(-c3c(F)cccc3F)[nH]c2C)c1 [Example 191],–,90%
Cc1[nH]c(C(=O)NS(=O)(=O)c2ccccc2Cl)nc1-c1c(F)cccc1F [Example 145],90%,–
Cc1cc(C(=O)NS(=O)(=O)c2ccccc2Br)nn1-c1cccc(Cl)c1Cl [Example 302],–,100%
CCc1[nH]c(-c2cccc(OC)c2)nc1C(=O)NS(=O)(=O)c1ccccc1Cl [Example 122],90%,–
Cn1cc(C(=O)NS(=O)(=O)c2cc(F)ccc2F)nc1-c1c(F)cccc1F [Example 455],90%,–
CCS(=O)(=O)NC(=O)c1cn(C)c(-c2ccccc2C)n1 [Example 89],90%,–
COc1ccccc1S(=O)(=O)NC(=O)c1cn(C)c(-c2ccccc2[N+](=O)[O-])n1 [Example 529],100%,–
CCc1c(C(=O)NS(=O)(=O)c2ccccc2Br)nc(-c2c(F)cccc2F)n1C [Example 198],–,100%
COc1ccc(Cl)c(S(=O)(=O)NC(=O)c2cnc(-c3cc(Cl)cc(Cl)c3)[nH]2)c1 [Example 224],90%,–
CCc1[nH]c(-c2ccccc2Cl)nc1C(=O)NS(=O)(=O)C(C)C [Example 121],90%,–
CCc1[nH]c(-c2cccc(Cl)c2)nc1C(=O)NS(=O)(=O)C(C)C [Example 131],–,90%
Cn1cc(C(=O)NS(=O)(=O)c2cccc(C#N)c2)nc1-c1ccccc1Cl [Example 167],90%,–
CSc1ccccc1-c1nc(C(=O)NS(=O)(=O)c2ccccc2C)cn1C [Example 214],–,100%
Cc1ccccc1S(=O)(=O)NC(=O)c1cn(C)c(-c2ccccc2OC(F)(F)F)n1 [Example 458],90%,–
CCc1[nH]c(-c2cccc(Cl)c2)nc1C(=O)NS(=O)(=O)c1cc(OC)ccc1Cl [Example 130],–,90%
CCOc1ccccc1S(=O)(=O)NC(=O)c1cn(C)c(-c2c(F)cccc2Cl)n1 [Example 154],90%,–
CCc1[nH]c(-c2cccc(C(F)(F)F)c2)nc1C(=O)NS(=O)(=O)c1ccccc1Cl [Example 247],–,100%
CCc1[nH]c(-c2ccc(Cl)cc2)nc1C(=O)NS(=O)(=O)C(C)C [Example 601],–,90%
Cc1cccc(OS(C)(=O)=O)c1S(=O)(=O)NC(=O)c1cn(C)c(-c2c(F)cccc2F)n1 [Example 368],–,90%

Compound,pest or weed control at 500 g/ha (Myzus persicae [1]),pest or weed control at 20 ppm (Myzus persicae [2])
CCc1[nH]c(-c2cccc(C(F)(F)F)c2)nc1C(=O)NS(=O)(=O)C(C)C [Example 248],–,100%
COc1ccc(Cl)c(S(=O)(=O)NC(=O)c2nc(-c3ccccc3Cl)c(C)[nH]2)c1 [Example 201],–,100%
COc1ccccc1S(=O)(=O)NC(=O)c1cn(C)c(-c2cc(F)ccc2F)n1 [Example 526],90%,–
Cc1cccc(Cl)c1S(=O)(=O)NC(=O)c1cc(C)n(-c2cccc(Cl)c2Cl)n1 [Example 306],–,100%
CCc1[nH]c(-c2ccc(F)cc2F)nc1C(=O)NS(=O)(=O)c1ccccc1C [Example 245],–,100%
CCc1[nH]c(-c2cccc(Br)c2)nc1C(=O)NS(=O)(=O)c1ccccc1Cl [Example 136],–,90%
CCCOc1ccc(Cl)c(S(=O)(=O)NC(=O)c2cn(C)c(-c3c(F)cccc3F)n2)c1 [Example 180],–,100%
Cn1cc(C(=O)NS(=O)(=O)c2cc(Cl)cc(Cl)c2)nc1-c1ccccc1Cl [Example 166],90%,–
Cc1nc(Cl)sc1S(=O)(=O)NC(=O)c1cn(C)c(-c2c(F)cccc2F)n1 [Example 346],90%,–
Cn1cc(C(=O)NS(=O)(=O)c2ccc(C#N)cc2)nc1-c1ccccc1Cl [Example 168],90%,–
Cc1nn(C)c(Cl)c1S(=O)(=O)NC(=O)c1cn(C)c(-c2c(F)cccc2F)n1 [Example 348],–,100%
Cc1ccccc1S(=O)(=O)NC(=O)c1cnc(-c2c(F)cccc2F)n1C [Example 163],–,100%
CCc1[nH]c(-c2cc(C)cc(C)c2)nc1C(=O)NS(=O)(=O)c1ccccc1C [Example 470],–,100%
COc1ccc(Cl)c(S(=O)(=O)NC(=O)c2nc(-c3cccc(Cl)c3)[nH]c2C)c1 [Example 619],–,100%
Cc1[nH]c(-c2cccc(Cl)c2)nc1C(=O)NS(=O)(=O)C(C)C [Example 236],–,90%
COc1ccc(OC)c(S(=O)(=O)NC(=O)c2cn(C)c(-c3ccccc3S(C)(=O)=O)n2)c1 [Example 509],–,100%
Cc1[nH]c(C(=O)NS(=O)(=O)c2ccccc2Cl)nc1-c1ccccc1Cl [Example 418],–,90%
CC(C)c1cccc(-c2nc(C(=O)NS(=O)(=O)c3ccccc3Cl)c(C(C)C)[nH]2)c1 [Example 612],–,100%
Cn1cc(C(=O)NS(=O)(=O)c2cnc(Cl)s2)nc1-c1c(F)cccc1F [Example 345],–,90%
CCS(=O)(=O)NC(=O)c1cn(C)c(-c2c(F)cccc2F)n1 [Example 86],100%,–
Cn1cc(C(=O)NS(=O)(=O)c2ccccc2)nc1-c1ccccc1Cl [Example 229],100%,–
Cc1ccccc1S(=O)(=O)NC(=O)c1cn(C)c(-c2ccccn2)n1 [Example 493],100%,–
Cn1cc(C(=O)NS(=O)(=O)CC(F)(F)F)nc1-c1ccccc1F [Example 90],100%,–

Compound,pest or weed control at 500 g/ha (Myzus persicae [1]),pest or weed control at 20 ppm (Myzus persicae [2])
Cn1cc(C(=O)NS(=O)(=O)c2cc(C(F)(F)F)ccc2C(F)(F)F)nc1-c1c(F)cccc1F [Example 400],90%,–
COc1ccc(Br)cc1S(=O)(=O)NC(=O)c1nc(-c2c(F)cccc2F)n(C)n1 [Example 327],–,90%
Cn1cc(C(=O)NS(C)(=O)=O)nc1-c1c(Cl)cccc1Cl [Example 83],90%,–
COc1ccccc1S(=O)(=O)NC(=O)c1cn(C)c(-c2ccccc2SC)n1 [Example 215],–,90%
COc1ccc(OC)c(S(=O)(=O)NC(=O)c2cn(C)c(-c3ncccc3F)n2)c1 [Example 608],100%,–
CS(=O)(=O)NC(=O)c1cn(-c2cccc(Cl)c2)c(-c2ccccc2Cl)n1 [Example 72],90%,–
Cc1ccc(F)cc1S(=O)(=O)NC(=O)c1cc(C)n(-c2cccc(Cl)c2Cl)n1 [Example 305],–,90%
CCc1ccc(OC)c(S(=O)(=O)NC(=O)c2cn(C)c(-c3c(F)cccc3F)n2)c1 [Example 391],90%,–
COc1ccc(Cl)c(S(=O)(=O)NC(=O)c2nc(-c3ccc(Cl)c(Cl)c3)[nH]c2C)c1 [Example 615],–,100%
Cn1cc(C(=O)NS(=O)(=O)c2ccccc2C(F)(F)F)nc1-c1c(F)cc(F)cc1F [Example 5],90%,–
Cn1cc(C(=O)NS(=O)(=O)c2ccccc2N)nc1-c1ccccc1Cl [Example 132],–,100%
CSc1ccccc1-c1nc(C(=O)NS(=O)(=O)c2ccccc2Cl)cn1C [Example 213],–,100%
Cc1[nH]c(-c2cccc(C(C)C)c2)nc1C(=O)NS(=O)(=O)c1ccccc1Cl [Example 617],–,100%
CCc1[nH]c(-c2c(C)cccc2C)nc1C(=O)NS(=O)(=O)c1ccccc1Cl [Example 208],–,90%
Cn1cc(C(=O)NS(C)(=O)=O)nc1-c1ccccc1Cl [Example 65],90%,–
O=C(NS(=O)(=O)c1ccccc1Cl)c1c[nH]c(-c2c(F)cccc2F)n1 [Example 412],–,90%
Cc1cc(C(=O)NS(=O)(=O)c2ccc(Cl)s2)nn1-c1cc(Cl)ccc1Cl [Example 299],–,90%
Cn1cc(C(=O)NS(=O)(=O)CC(F)(F)F)nc1-c1c(F)cccc1F [Example 84],100%,–
CCc1[nH]c(-c2cc(Cl)cc(Cl)c2)nc1C(=O)NS(=O)(=O)c1ccccc1OC [Example 137],–,90%
Cn1cc(C(=O)NS(=O)(=O)c2cccs2)nc1-c1c(F)cccc1F [Example 349],100%,–
COc1ccc(Cl)c(S(=O)(=O)NC(=O)c2cnc(-c3c(F)cccc3F)n2C)c1 [Example 160],90%,–
COc1ccccc1S(=O)(=O)NC(=O)c1cn(C)c(-c2csc3ccccc23)n1 [Example 531],–,90%
Cn1cc(C(=O)NS(=O)(=O)c2cc(C#N)ccc2Cl)nc1-c1c(F)cccc1F [Example 452],–,100%
